According to publication PMC7717712, “The effects of cardiac drugs on human erythrocyte carbonic anhydrase I and II isozymes” (Journal of Enzyme Inhibition and Medicinal Chemistry, 2020):
pIC50, pKi: −log10 of the molar value. Entries after “also recorded” stand apart in the source; their conditions may differ. Where a name gives a salt, the structure may show the parent alone.

What was measured:
[1] = target: T1, human carbonic anhydrase I (hCA I) (Homo sapiens, UniProt P00915); test: CO2 hydratase activity assay (Maren method), hCA I; type: biochemical
T1 construct: from tissue
T1 sequence (P00915 whole entry): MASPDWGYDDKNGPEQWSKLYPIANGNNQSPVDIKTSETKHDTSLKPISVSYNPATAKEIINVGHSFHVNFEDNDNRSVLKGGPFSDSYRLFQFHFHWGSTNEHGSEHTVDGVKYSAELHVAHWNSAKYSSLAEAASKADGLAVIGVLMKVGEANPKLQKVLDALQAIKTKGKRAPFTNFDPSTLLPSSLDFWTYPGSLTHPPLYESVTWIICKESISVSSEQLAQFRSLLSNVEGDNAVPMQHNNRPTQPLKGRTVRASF
Method: (§1) Blood samples (25 ml) from healthy human volunteers were collected. They were centrifuged at 1000g for 20 min at 4 °C, and the supernatant was removed. The packed erythrocytes were washed three times with 0.9% NaCl and then were hemolyzed in cold water. The pH of the hemolysate was adjusted to 8.5 with the solid Tris base. The 25-ml hemolysate was applied to an affinity column containing y Sepharose 4B-ethylene diamine-4-isothiocyanato-benzenesulfonamide[14]. CA isozymes were then eluted with 0.1 M NaCl/25 mM Na2HPO4 (pH 6.3) and 0.1 M CH3COONa/0.5 M NaClO4 (pH 5.6), which recovered hCA I and II, respectively.
(§2) CA activity was measured by the Maren method based on the determination of the time required for the pH to decrease from 10.0 to 7.4 due to CO2 hydration. The assay solution was 0.5 M Na2CO3/0.1 M NaHCO3 (pH 10.0), and phenol red was added as the pH indicator. Carbon dioxide-hydratase activity was calculated in enzyme units (EU) with the following equation: t0 – tc/tc, where t0 and tc are the times for the pH change of the nonenzymatic and the enzymatic reactions, respectively.
(§3) The drugs were triturated in a porcelain mortar pestle. Stock solutions of both drugs were prepared in dimethyl sulfoxide (DMSO). Different concentrations of the drugs were added to the enzyme activity determination medium with a total volume of 4.2 ml. The duration (in seconds) of the colour change from red to yellow in solution was measured in a 10-ml glass tube with a diameter of 1 cm. Control cuvette activity in the absence of the inhibitor was set at 100%. All compounds were tested in triplicate at each concentration used. For each inhibitor, an activity %–[inhibitor] graph was drawn (data not shown).

[2] = target: T1, human carbonic anhydrase I (hCA I); test: Esterase activity assay (4-nitrophenyl-acetate), hCA I; type: biochemical
Method: (§4) Blood samples (25 ml) from healthy human volunteers were collected. They were centrifuged at 1000g for 20 min at 4 °C, and the supernatant was removed. The packed erythrocytes were washed three times with 0.9% NaCl and then were hemolyzed in cold water. The pH of the hemolysate was adjusted to 8.5 with the solid Tris base. The 25-ml hemolysate was applied to an affinity column containing y Sepharose 4B-ethylene diamine-4-isothiocyanato-benzenesulfonamide[14].
(§5) The inhibitory effects of the drugs on enzyme activities were tested under in vitro conditions.

[3] = target: T2, human carbonic anhydrase II (hCA II) (Homo sapiens, UniProt P00918); test: CO2 hydratase activity assay (Maren method), hCA II; type: biochemical
T2 construct: from tissue
Method: as §1, §2, §3

[4] = target: T2, human carbonic anhydrase II (hCA II); test: Esterase activity assay (4-nitrophenyl-acetate), hCA II; type: biochemical
Method: as §4, §5

aldehyde oxidase = system: aldehyde oxidase; design: method as in PMID 14681337; conditions: read-out: aldehyde oxidase inhibition (concentration printed without endpoint name); cited from earlier work
CYP3A4 = system: CYP3A4; design: method as in earlier work; conditions: concentration-dependent; read-out: IC50, CYP3A4 enzyme activity; cited from earlier work
[5] = system: 15 hCA isoforms (hCA I–XIV); conditions: cited from earlier work
[6] = target: glucose-6-phosphate dehydrogenase; design: method as in PMID 29947262; conditions: cited from earlier work
[7] = system: CA-I levels / atherosclerosis; design: method as in PMID 31354482; conditions: cited from earlier work
[8] = hydratase method, enzyme purified from human erythrocytes, read-out: IC50 (hydratase) hCA I
[9] = esterase method, 4-nitrophenyl-acetate, 348 nm, 25 °C, read-out: IC50 (esterase) hCA I
[10] = hydratase method, enzyme purified from human erythrocytes, read-out: IC50 (hydratase) hCA II
[11] = esterase method, 4-nitrophenyl-acetate, 348 nm, 25 °C, read-out: IC50 (esterase) hCA II

| Structure (SMILES) | pIC50 [1, 8] | pIC50 [2, 9] | pIC50 [3, 10] | pIC50 [4, 11] | other results |
| --- | --- | --- | --- | --- | --- |
| CC(=O)Oc1ccccc1C(=O)O [Acetylsalicylic acid] | 3.60 | 4.37 |  |  |  |
| CCCCc1oc2ccccc2c1C(=O)c1cc(I)c(OCCN(CC)CC)c(I)c1 [Amiodorane hydrochloride] | 3.41 | 5.07 | 3.39 | 4.91 |  |
| CCOC(=O)C1=C(COCCN)NC(C)=C(C(=O)OC)C1c1ccccc1Cl (stereo not shown) [Amlodipine] | 3.88 | 4.41 | 3.90 | 4.41 | pIC50 (aldehyde oxidase): 5.26 |
| COc1ccc(-n2nc(C(N)=O)c3c2C(=O)N(c2ccc(N4CCCCC4=O)cc2)CC3)cc1 [Apixaban] | 4.05 | 3.42 | 3.96 | 3.41 |  |
| CC(C)c1c(C(=O)Nc2ccccc2)c(-c2ccccc2)c(-c2ccc(F)cc2)n1CC[C@@H](O)C[C@@H](O)CC(=O)O [Atorvastatin] | 3.61 | 5.11 | 3.41 | 5.01 | pIC50 (CYP3A4): […]; inhibition of the 15 hCA isoforms (hCA I–XIV) [5]: submicromolar–low nanomolar inhibition |
| CC(C)NCC(O)COc1ccc(COCCOC(C)C)cc1 (stereo not shown) [Bisoprolol hemifumarate] | 3.97 | 3.81 | 3.66 | 3.61 |  |
| CCOc1nc2cccc(C(=O)OC(C)OC(=O)OC3CCCCC3)c2n1Cc1ccc(-c2ccccc2-c2nnn[nH]2)cc1 (stereo not shown) [Candesartan cilexetil] | 3.73 | 3.47 | 3.57 | 3.75 |  |
| C[C@H](CS)C(=O)N1CCC[C@H]1C(=O)O [Captopril] | 3.92 | 5.80 | 3.88 | 5.20 |  |
| COc1ccccc1OCCNCC(O)COc1cccc2[nH]c3ccccc3c12 (stereo not shown) [Carvedilol] | 4.21 | 4.69 | 4.10 | 4.33 |  |
| COC(=O)[C@H](c1ccccc1Cl)N1CCc2sccc2C1 [Clopidogrel] | 3.60 | 4.03 | 3.44 | 3.99 |  |
| CCCCCCOC(=O)NC(=N)c1ccc(NCc2nc3cc(C(=O)N(CCC(=O)OCC)c4ccccn4)ccc3n2C)cc1 [Dabigatran etexilate] | 3.95 | 4.82 | 3.94 | 4.82 |  |
| C[C@H]1O[C@@H](O[C@H]2[C@@H](O)C[C@H](O[C@H]3[C@@H](O)C[C@H](O[C@H]4CC[C@@]5(C)[C@H](CC[C@@H]6[C@@H]5C[C@@H](O)[C@]5(C)[C@@H](C7=CC(=O)OC7)CC[C@]65O)C4)O[C@@H]3C)O[C@@H]2C)C[C@H](O)[C@@H]1O [Digoxin] | 4.13 | 4.64 | 4.06 | 4.48 |  |
| COc1ccc([C@@H]2Sc3ccccc3N(CCN(C)C)C(=O)[C@@H]2OC(C)=O)cc1 [Diltiazem] | 3.20 | 3.63 | 3.32 | 3.49 |  |
| COc1cc2nc(N3CCN(C(=O)C4COc5ccccc5O4)CC3)nc(N)c2cc1OC (stereo not shown) [Doxazosin mesylate] | 3.64 | 3.52 | 3.67 | 3.38 |  |
| CN1CCc2nc(C(=O)N[C@@H]3C[C@@H](C(=O)N(C)C)CC[C@@H]3NC(=O)C(=O)Nc3ccc(Cl)cn3)sc2C1 [Edoxaban] | 4.03 | 4.34 | 4.17 | 4.47 |  |
| NS(=O)(=O)c1cc(C(=O)O)c(NCc2ccco2)cc1Cl [Furosemide] |  |  |  |  | pIC50 [6]: 3.28 |
| O=[N+]([O-])OCC(CO[N+](=O)[O-])O[N+](=O)[O-] [Glyceryl trinitrate] |  |  |  |  | pIC50 [1]: 3.66; pIC50 [3]: 3.57 |

| Structure (SMILES) | pIC50 [1, 8] | pIC50 [2, 9] | pIC50 [3, 10] | pIC50 [4, 11] | other results |
| --- | --- | --- | --- | --- | --- |
| CCCCC1=NC2(CCCC2)C(=O)N1Cc1ccc(-c2ccccc2-c2nnn[nH]2)cc1 [Irbesartan] | 3.63 | 3.46 | 3.62 | 3.47 |  |
| O=[N+]([O-])O[C@@H]1CO[C@H]2[C@@H]1OC[C@@H]2O [Isosorbide mononitrate] |  |  |  |  | pIC50 [1]: 3.80; pIC50 [3]: 3.80; pIC50 [2]: 5.22; pIC50 [4]: 5.26 |
| COc1cc2c(cc1OC)CC(=O)N(CCCN(C)C[C@H]1Cc3cc(OC)c(OC)cc31)CC2 [Ivabradine] |  | 3.97 |  | 3.93 |  |
| CCOC(=O)C1=C(C)NC(C)=C(C(=O)OCC)C1c1ccccc1/C=C/C(=O)OC(C)(C)C [Lacidipine] | 3.16 | 3.82 | 3.32 | 3.81 |  |
| COC(=O)C1=C(C)NC(C)=C(C(=O)OC(C)(C)CN(C)CCC(c2ccccc2)c2ccccc2)C1c1cccc([N+](=O)[O-])c1 (stereo not shown) [Lercanidipine hydrochloride] | 3.70 | 3.53 | 3.80 | 3.37 |  |
| CCN(CC)CC(=O)Nc1c(C)cccc1C [Lidocaine HCl] | 4.71 |  | 5.70 |  |  |
| COCCc1ccc(OCC(O)CNC(C)C)cc1 (stereo not shown) [Metoprolol succinate] | 3.40 | 3.50 | 3.77 | 3.48 |  |
| OC(CNCC(O)C1CCc2cc(F)ccc2O1)C1CCc2cc(F)ccc2O1 (stereo not shown) [Nebivolol hydrochloride] | 4.13 | 3.39 | 4.02 | 3.39 |  |
| CC(=O)Oc1cc2c(s1)CCN(C(C(=O)C1CC1)c1ccccc1F)C2 (stereo not shown) [Prasugrel] | 3.81 | 3.48 | 3.69 | 3.37 |  |
| CCCNCC(O)COc1ccccc1C(=O)CCc1ccccc1 (stereo not shown) [Propafenone] | 3.64 | 5.55 | 3.63 | 5.52 | Inhibition type, hCA I ([2]; Lineweaver–Burk plot): non-competitive; pKi ([2]; from Lineweaver–Burk plot): 5.62; Inhibition type, hCA II ([4]; Lineweaver–Burk plot): non-competitive; pKi ([4]; from Lineweaver–Burk plot): 5.53 |
| CC(C)NCC(O)COc1cccc2ccccc12 (stereo not shown) [Propranolol] | 5.75 |  |  |  |  |
| CCOC(=O)[C@H](CCc1ccccc1)N[C@@H](C)C(=O)N1[C@H](C(=O)O)C[C@@H]2CCC[C@@H]21 [Ramipril] | 3.55 | 4.49 | 3.81 | 4.42 |  |
| COc1ccccc1OCC(O)CN1CCN(CC(=O)Nc2c(C)cccc2C)CC1 (stereo not shown) [Ranolazine] | 3.30 | 3.22 | 3.26 | 3.19 |  |
| O=C(NC[C@H]1CN(c2ccc(N3CCOCC3=O)cc2)C(=O)O1)c1ccc(Cl)s1 [Rivaroxaban] | 3.66 | 3.72 | 3.69 | 3.61 |  |
| CCCSc1nc(N[C@@H]2C[C@H]2c2ccc(F)c(F)c2)c2nnn([C@@H]3C[C@H](OCCO)[C@@H](O)[C@H]3O)c2n1 [Ticagrelor] | 3.77 | 4.27 | 3.71 | 4.28 |  |
| COc1ccc(CN2CCNCC2)c(OC)c1OC [Trimetazidine dihydrochloride] | 3.71 | 3.95 | 3.82 | 3.95 |  |
| CC(=O)/N=c1/sc(S(N)(=O)=O)nn1C [methazolamide] |  |  |  |  | CA-I levels / CA-I expression ([7]; animal atherosclerosis model): decreased CA-I levels; also recorded: suppresses CA-I expression; atherosclerosis [7]: significantly reduces atherosclerosis |
